Source: the supplement of paper PMC12592484

Experiments:
Assay in all cases: drug sensitivity score (DSS2, normalised partial AUC of dose-response, 72 h CellTiter-Glo viability) (DSS (dimensionless)); higher = more sensitive (stronger growth inhibition / cytotoxicity); extreme values may be limits of the assay
22Rv1 = tested on: 22Rv1
In short: (§1)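 The drug sensitivity score reported here is a partial area under the fitted logistic dose–response curve, divided by the log of the curve's upper asymptote and computed in BREEZE; higher values denote greater sensitivity. Low-passage primary prostate cancer-associated fibroblasts, PF179T, WPMY-1, LNCaP and 22Rv1 cells were seeded into 384-well plates preloaded with compounds at five doses across a 10,000-fold range. CellTiter-Glo 2.0 luminescence gave viability at 72 h, scaled to vehicle and positive-control wells.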

CAF#1 = tested on: CAF#1 (primary prostate cancer-associated fibroblasts of myCAF-like type)
In short: as §1

CAF#2 = tested on: CAF#2 (primary prostate cancer-associated fibroblasts of iCAF-like type)
In short: as §1

CAF#3 = tested on: CAF#3 (primary prostate cancer-associated fibroblasts of myCAF-like type)
In short: as §1

CAF#4 = tested on: CAF#4 (primary prostate cancer-associated fibroblasts of iCAF-like type)
In short: as §1

CAF#5 = tested on: CAF#5 (primary prostate cancer-associated fibroblasts of myCAF-like type)
In short: as §1

CAF#6 = tested on: CAF#6 (primary prostate cancer-associated fibroblasts of iCAF-like type)
In short: as §1

CAF#7 = tested on: CAF#7 (primary prostate cancer-associated fibroblasts of myCAF-like type)
In short: as §1

LNCAP = tested on: LNCAP
In short: as §1

PF179T = tested on: PF179T
In short: as §1

WPMY-1 = tested on: WPMY-1
In short: as §1

Compound | drug sensitivity score (22Rv1) | drug sensitivity score (CAF#1) | drug sensitivity score (CAF#2) | drug sensitivity score (CAF#3) | drug sensitivity score (CAF#4) | drug sensitivity score (CAF#5) | drug sensitivity score (CAF#6) | drug sensitivity score (CAF#7) | drug sensitivity score (LNCAP) | drug sensitivity score (PF179T) | drug sensitivity score (WPMY-1)
CC(C)C[C@H](NC(=O)[C@H](CCc1ccccc1)NC(=O)CN1CCOCC1)C(=O)N[C@@H](Cc1ccccc1)C(=O)N[C@@H](CC(C)C)C(=O)[C@@]1(C)CO1 [Carfilzomib] (tested concentration range 0.1-1000 nM) | 27.5 | 17.5 | 18.9 | 17.1 | 13.3 | 22 | 15.9 | 16.7 | 27.2 | 20.3 | 31.5
C#Cc1cccc(Nc2ncnc3cc(OCCOC)c(OCCOC)cc23)c1 [Erlotinib] (tested concentration range 1-10000 nM) | 1.4 | 3.7 | 3.7 | 1.2 | 4.8 | 4.8 | 0.2 | 1.1 | 4 | 1.4 | 0.5
CN(C)C(=O)c1cc2cnc(Nc3ccc(N4CCNCC4)cn3)nc2n1C1CCCC1 [Ribociclib] (tested concentration range 1-10000 nM) | 5 | 0 | 4.6 | 2.9 | 2.7 | 2.5 | 2.4 | 3 | 7.7 | 3.7 | 0
CN(C)C(=O)c1ccc(S(=O)(=O)c2ccc(NC(=O)[C@@](C)(O)C(F)(F)F)c(Cl)c2)cc1 [AZD7545] (tested concentration range 1-10000 nM) | 0.2 | 0 | 0 | 0.4 | 0 | 0 | 0 | 0 | 2.7 | 0 | 0.1
COC(=O)c1ccc2c(c1)[nH]c1ncnc(NCCCN3CCCCC3)c12 [UM729] (tested concentration range 1-10000 nM) | 3.6 | 0 | 0 | 0.3 | 0 | 1.6 | 0 | 0.2 | 3.3 | 0.1 | 3.9
O=C(O)C(=O)O.[NH-][C@@H]1CCCC[C@H]1[NH-].[Pt+2] [Oxaliplatin] (tested concentration range 10-100000 nM) | 13.8 | 9.7 | 10.6 | 8.3 | 9.1 | 9.4 | 7.3 | 7.4 | 26.1 | 8.8 | 9
COc1cc(N2CCN(C)CC2)ccc1Nc1nccc(-c2cn(C)c3cnccc23)n1 [AZ191] (tested concentration range 1-10000 nM) | 6.4 | 6 | 5.7 | 7.1 | 1.9 | 4.6 | 2.3 | 2.1 | 3.5 | 2.7 | 6.8
CCc1nc(C(N)=O)c(Nc2ccc(N3CCC(N4CCN(C)CC4)CC3)c(OC)c2)nc1NC1CCOCC1 [Gilteritinib] (tested concentration range 0.1-1000 nM) | 1.7 | 0.3 | 0 | 0 | 0 | 0.1 | 0 | 0 | 0 | 1.3 | 5.2
CO[C@H]1CC[C@H](N2C(=O)CNc3ncc(-c4ccc(C(C)(C)O)nc4)nc32)CC1 [ATG-008] (tested concentration range 1-10000 nM) | 8.9 | 5.7 | 7 | 5.5 | 6.5 | 7.4 | 2.8 | 3.1 | 7.6 | 6.3 | 6.2
CN(C)C[C@@H]1CCn2cc(c3ccccc32)C2=C(C(=O)NC2=O)c2cn(c3ccccc23)CCO1 [Ruboxistaurin] (tested concentration range 1-10000 nM) | 9.6 | 8.4 | 6.6 | 8.9 | 8.4 | 6.8 | 6.8 | 5.9 | 8.2 | 8.4 | 8.4
CCCCOc1nc(N)c2c(n1)N(Cc1cccc(CN3CCCC3)c1)CC(=O)N2 [Vesatolimod] (tested concentration range 1-10000 nM) | 0 | 0 | 0 | 0 | 0 | 0 | 0 | 0 | 0 | 0 | 0
Cc1ccc(NC(=O)c2ccc(CN3CCN(C)CC3)cc2)cc1Nc1nc(-c2cccnc2)cs1 [Masitinib] (tested concentration range 1-10000 nM) | 5.3 | 4.1 | 5.3 | 0.6 | 7.6 | 3.1 | 1.6 | 1.9 | 4.3 | 2.4 | 5.3
CCN(CC)CCN(Cc1ccc(-c2ccc(C(F)(F)F)cc2)cc1)C(=O)Cn1c(SCc2ccc(F)cc2)nc(=O)c2c1CCC2 [Darapladib] (tested concentration range 0.1-1000 nM) | 3.7 | 0 | 0 | 0.1 | 1 | 0.7 | 0 | 0 | 0 | 0 | 1.3
C[C@]12C=CC(=O)C=C1CC[C@@H]1[C@@H]2[C@@H](O)C[C@@]2(C)[C@H]1CC[C@]2(O)C(=O)CO [Prednisolone] (tested concentration range 1-10000 nM) | 0 | 0 | 0 | 0 | 0 | 0 | 0 | 0 | 0 | 0 | 0
CC1=C(/C=C/C(C)=C/C=C/C(C)=C/C(=O)O)C(C)(C)CCC1 [Tretinoin] (tested concentration range 1-10000 nM) | 0 | 1.4 | 5 | 0.2 | 0 | 1.7 | 2.7 | 5 | 0 | 8.2 | 0
Cc1sc2c(c1C)C(c1ccc(Cl)cc1)=N[C@@H](CC(=O)Nc1ccc(O)cc1)c1nnc(C)n1-2 [Birabresib] (tested concentration range 1-10000 nM) | 13.4 | 9.4 | 9.9 | 11.8 | 3.4 | 3.1 | 5.1 | 3 | 19.8 | 2.8 | 11.9
C[C@]1(O)C[C@@H](c2nc(-c3ccc4ccc(-c5ccccc5)nc4c3)c3c(N)nccn32)C1 [Linsitinib] (tested concentration range 1-10000 nM) | 1.3 | 1.5 | 2.6 | 0 | 0 | 3.2 | 0.2 | 0.7 | 0.6 | 0 | 0.5
CC(C)C[C@H](NC(=O)[C@H](Cc1ccccc1)NC(=O)c1cnccn1)B(O)O [Bortezomib] (tested concentration range 0.1-1000 nM) | 24.9 | 23.9 | 30.1 | 26.9 | 20 | 28.1 | 23.7 | 24.3 | 28.8 | 20.9 | 30.6
CO[C@H]1C(=O)[C@]2(C)[C@@H](OC)C[C@H]3OC[C@@]3(OC(C)=O)[C@H]2[C@H](OC(=O)c2ccccc2)[C@]2(O)C[C@H](OC(=O)[C@H](O)[C@@H](NC(=O)OC(C)(C)C)c3ccccc3)C(C)=C1C2(C)C [Cabazitaxel] (tested concentration range 0.1-1000 nM) | 26.5 | 14.6 | 18.1 | 14.2 | 13 | 15.8 | 18.4 | 26.4 | 35.6 | 22.2 | 28.2
COc1cc(Nc2ncc(F)c(Nc3ccc4c(n3)N(COP(=O)(O)O)C(=O)C(C)(C)O4)n2)cc(OC)c1OC [Fostamatinib] (tested concentration range 0.2-2500 nM) | 0 | 7.7 | 8.4 | 6.6 | 5.3 | 7.2 | 5.6 | 7 | 4.4 | 7.3 | 4.4
CS(=O)(=O)CCNCc1ccc(-c2ccc3ncnc(Nc4ccc(OCc5cccc(F)c5)c(Cl)c4)c3c2)o1 [Lapatinib] (tested concentration range 0.1-1000 nM) | 0 | 0 | 0 | 0.1 | 0 | 0 | 0 | 0 | 0.3 | 0 | 0
CC1(C)NC(=O)N(c2ccc([N+](=O)[O-])c(C(F)(F)F)c2)C1=O [Nilutamide] (tested concentration range 1-10000 nM) | 0 | 0.1 | 0.1 | 0 | 2.7 | 0 | 0 | 0 | 2.9 | 0 | 0
C[C@@H](Oc1cc(-c2cnn(C3CCNCC3)c2)cnc1N)c1c(Cl)ccc(F)c1Cl [Crizotinib] (tested concentration range 0.1-1000 nM) | 0 | 0 | 1.4 | 2.7 | 0 | 1.5 | 2.5 | 0.8 | 0 | 1.4 | 0.5
Cn1cnc2c(F)c(Nc3ccc(Br)cc3Cl)c(C(=O)NOCCO)cc21 [Selumetinib] (tested concentration range 1-10000 nM) | 14.4 | 1.2 | 4.5 | 0 | 2.5 | 1.6 | 1.1 | 2.6 | 0 | 2.5 | 4.3
COc1cc([C@@H]2c3cc4c(cc3[C@@H](O[C@@H]3O[C@@H]5CO[C@@H](C)O[C@H]5[C@H](O)[C@H]3O)[C@H]3COC(=O)[C@H]23)OCO4)cc(OC)c1O [Etoposide] (tested concentration range 1-10000 nM) | 10.1 | 2.3 | 5.9 | 2.6 | 0.9 | 3 | 2.8 | 5.1 | 9.9 | 5.8 | 9
